Tested on: IL-2 production by Jurkat cells
Assay: Inhibition of IL-2 production by Jurkat cells after PMA/PHA co-stimulation (ELISA)
Type: cell-based, human
Details: PMA and PHA co-stimulation; for IL-2% Inhibition: 24 hours
Description: Compounds of the invention were tested for their activity as inhibitors of T Cell stimulation by measuring the effect on IL-2 production by Jurkat cells following PMA (phorbol 12-myristate 13-acetate) and PHA (phytohemagglutinin) co-stimulation. All new compounds were tested at 0.1 uM, 1 uM and 10 uM. Cyclosporine A (control) was also tested at 0.1 uM, 1 uM and 10 uM. All compounds to be tested were dissolved in dimethyl sulfoxide. Cytotoxicity was evaluated with parallel Alamar Blue plates. Jurkat cells were seeded at 2×10^5 cells per well in 200 μL growth media in a clear, U-bottom 96-well plate. Cells were cultured in RPMI 1640 medium, 10% fetal bovine serum, and L-Glutamine with incubation at 37° C. with 5% carbon dioxide. After 1 hour of incubation the cells were stimulated with PMA (12.5 uL of a 1 ng/mL solution in 1% DMSO/media) and PHA (12.5 uL of a 5 ug/mL solution in PBS). After 24 hours the sample supernatants were harvested and stored at −80° C. A sample of the supernatant (25 uL) was diluted with RPMI (25 uL) and the concentration of human IL-2 was determined by ELISA (Pierce, EH2IL25).

SMILES	IL-2% Inhibition (1 uM) [%]	IL-2% Inhibition (10 uM) [%]	IC50 [µM]
CCC1CC(C)C([C@H]2C(=O)N[C@@H](CC)C(=O)N(C)CC(=O)N(C)[C@@H](CC(C)C)C(=O)N[C@@H](C(C)C)C(=O)N(C)[C@@H](CC(C)C)C(=O)N[C@@H](C)C(=O)N[C@H](C)C(=O)N(C)[C@@H](CC(C)C)C(=O)N(C)[C@@H](CC(C)C)C(=O)N(C)[C@@H](C(C)C)C(=O)N2C)O1 (stereo partly drawn) [Example A, 1-[(2S)—N-Methyl-2-[tetrahydro-5-ethyl-3-methyl-2-furanyl]glycine]-cyclosporin A]	84	–	–
C=CC1CC(C)C(C2C(=O)NC(CC)C(=O)N(C)CC(=O)N(C)C(CC(C)(C)O)C(=O)NC(C(C)C)C(=O)N(C)C(CC(C)C)C(=O)NC(C)C(=O)NC(C)C(=O)N(C)C(CC(C)C)C(=O)N(C)C(CC(C)C)C(=O)N(C)C(C(C)C)C(=O)N2C)O1 [Example D, 1-[(2S)—N-methyl-2-[tetrahydro-5-ethenyl-3-methyl-2-furanyl]glycine]-4-(4-hydroxy-N-methyl-L-leucine)-cyclosporin A]	8	–	–
CCC1CC(C)C([C@H]2C(=O)N[C@@H](CC)C(=O)N(C)[C@H](SCCN(C)C)C(=O)N(C)[C@@H](CC(C)(C)O)C(=O)N[C@@H](C(C)C)C(=O)N(C)[C@@H](CC(C)C)C(=O)N[C@@H](C)C(=O)N[C@H](C)C(=O)N(C)[C@@H](CC(C)C)C(=O)N(C)[C@@H](CC(C)C)C(=O)N(C)[C@@H](C(C)C)C(=O)N2C)O1 (stereo partly drawn) [Example F, 1-[(2S)—N-methyl-2-[tetrahydro-5-ethyl-3-methyl-2-furanyl]glycine]-3-[2R-[[2-(dimethylamino)ethyl]thio]-N-methylglycine]-4-(4-hydroxy-N-methyl-L-leucine)-cyclosporin A]	2	5	–
CCC1CC(C)C([C@H]2C(=O)N[C@@H](CC)C(=O)N(C)CC(=O)N(C)[C@@H](CC(C)(C)O)C(=O)N[C@@H](C(C)C)C(=O)N(C)[C@@H](CC(C)C)C(=O)N[C@@H](C)C(=O)N[C@H](C)C(=O)N(C)[C@@H](CC(C)C)C(=O)N(C)[C@@H](CC(C)C)C(=O)N(C)[C@@H](C(C)C)C(=O)N2C)O1 (stereo partly drawn) [Example C, 1-[(2S)—N-Methyl-2-[tetrahydro-5-ethyl-3-methyl-2-furanyl]glycine]-4-(4-hydroxy-N-methyl-L-leucine)-cyclosporin A]	16	–	–
C=CC1CC(C)C(C2C(=O)NC(CC)C(=O)N(C)C(SCCN(C)C)C(=O)N(C)C(CC(C)(C)O)C(=O)NC(C(C)C)C(=O)N(C)C(CC(C)C)C(=O)NC(C)C(=O)NC(C)C(=O)N(C)C(CC(C)C)C(=O)N(C)C(CC(C)C)C(=O)N(C)C(C(C)C)C(=O)N2C)O1 [Example G, 1-[(2S)—N-methyl-2-[tetrahydro-5-ethenyl-3-methyl-2-furanyl]glycine]-3-[2R-[[2-(dimethylamino)ethyl]thio]-N-methylglycine]-4-(4-hydroxy-N-methyl-L-leucine)-cyclosporin A]	–	–	> 10

From patent US10738084B2, “Macrocycles” (Sentry Therapeutics Limited, priority 2015, dated 2020)
